Source: patent US11999987B2, “Bacterial cocultures expressing a bacteriocin system” (Lallemand Hungary Liquidity Management LLC, priority 2020, dated 2024)

Assays:
[1] = tested on: Lb. paracasei E3.1 harboring the empty vector; assay: Growth of Lb. paracasei E3.1 (empty vector) in MRS with nisin, OD600; type: cell-based, Lactobacillus paracasei; details: MRS supplemented with 500 ppm of nisin; empty vector strain; FIG. 1
Description: (§1) Resulting Lb. paracasei strains (±the nisin resistance construct) were grown in MRS (no nisin) and MRS supplemented with 500 ppm of nisin. The OD600 was monitored. When nisin was absent from the media both strains grew identically, indicating no deleterious effect of NisIEFG expression (FIG. 1).

[2] = tested on: Lb. paracasei E3.1 expressing pDW2-P5-nisIEFG; assay: Growth of Lb. paracasei E3.1 expressing the nisin autoimmunity construct in MRS with nisin, OD600; type: cell-based, Lactobacillus paracasei; details: MRS supplemented with 500 ppm of nisin; strain expressing pDW2-P5-nisIEFG; FIG. 1
Description: as §1

nisin
growth (OD600) in the presence of nisin [1]: completely inhibited
growth rate (OD600) in the presence of nisin [2]: only a minimal decrease in growth rate
